Source: US20060141064A1, “Herbal formulation useful as local anesthetic” (priority 2004, published 2006)

Legend:
[1] = tested on: guinea pig; assay: Local anesthetic properties, guinea pig wheal method, topical application (Table 1); format: in vivo; set-up: key: a positive (+) response is recorded, showing no anesthetic activity; loss in sensation (−); settings: 2% w/w, n = 6
[2] = tested on: guinea pig; assay: Local anesthetic properties, intradermal wheal method in guinea pigs, intradermal injection (Table 2); format: in vivo; settings: 2% w/w, n = 6
Method: Intra Dermal Wheal Method in Guinea Pigs:
The hairs on the back of guinea pigs were shaved. The normal response of the animal with a pinprick on both sides of the back was tested with 0.2 ml of the herbal formulations were injected intradermally on the left side and 0.2 ml of a normal saline (0.9%) was injected on the right side of the back. The sides were demarcated by ink. Six pinpricks were applied at interval of 2 to 3 s. Pinpricks were repeated after every 5 min. Animals showing no squeak response to all the six pinpricks were considered positive to anaesthetic effect.

CCN(CC)CC(=O)Nc1c(C)cccc1C [Lignocaine]
−: Response at 10 minutes after topical application ([1]; 10 min) | Response at 15 minutes after topical application ([1]; 15 min) | Response at 20 minutes after topical application ([1]; 20 min) | Response at 30 minutes after topical application ([1]; 30 min) | Response at 45 minutes after topical application ([1]; 45 min) | Response at 60 minutes after topical application ([1]; 60 min) | Response at 120 minutes after topical application ([1]; 120 min) | Response at 5 minutes after intradermal injection ([2]; 5 min) | Response at 10 minutes after intradermal injection ([2]; 10 min) | Response at 15 minutes after intradermal injection ([2]; 15 min) | Response at 20 minutes after intradermal injection ([2]; 20 min) | Response at 30 minutes after intradermal injection ([2]; 30 min) | Response at 45 minutes after intradermal injection ([2]; 45 min) | Response at 60 minutes after intradermal injection ([2]; 60 min)
+: Response at 0 minutes after topical application ([1]; 0 min) | Response at 5 minutes after topical application ([1]; 5 min) | Response at 0 minutes after intradermal injection ([2]; 0 min)
